# US20250313560A1, “Novel bicyclic benzylamido pyridine derivatives as SOS1 inhibitors” (Boehringer Ingelheim International GmbH, priority 2024, published 2025)
# Like-named read-outs stand apart in the source and are kept apart here.
# How the values were obtained:
# human hepatocytes = experiment: Metabolic stability in human hepatocytes; settings: 1 μM test compound, 50% human serum, percentage of liver blood flow
# Experimental: The metabolic degradation of a test compound is performed with hepatocytes in suspension. After recovery from cryopreservation, human hepatocytes are diluted in Dulbecco's modified eagle medium (supplemented with 3.5 μg glucagon/500 mL, 2.5 mg insulin/500 mL, 3.75 mg hydrocortisone/500 mL, 50% human serum) to obtain a final cell density of 1.0×10^6 cells/mL. Following a preincubation in a cell culture incubator (37° C., 10% CO2), test compound dissolved in DMSO is mixed with the hepatocyte suspension, resulting in a final test compound concentration of 1 μM and a final DMSO concentration of 0.05%.
# The cell suspension is incubated at 37° C. (cell culture incubator, horizontal shaker) and samples are removed from the incubation after 0, 0.5, 1, 2, 4 and 6 hours. Samples are quenched with acetonitrile (containing internal standard) and pelleted by centrifugation. The supernatant is transferred to a deep-well plate and prepared for analysis of decline of parent compound by HPLC-MS/MS.
# The percentage of remaining test compound is calculated using the peak area ratio (test compound/internal standard) of each incubation time point relative to the time point 0 peak area ratio. The log-transformed data are plotted versus incubation time, and the absolute value of the slope obtained by linear regression analysis is used to estimate in vitro half-life (T1/2).
# CL_[sequence]_IN VIVO[mL/min/kg]=(CL_[sequence][μL/min/10^6cells]×hepatocellularity[10^6cells/g liver]×liver factor[g/kg body weight])/1000
# Hepatic in vivo blood clearance (CL) is predicted according to the well-stirred liver model considering an average liver blood flow (QH) of 20.7 mL/min/kg:
# CL[mL/min/kg]=CL_[sequence]_IN VIVO[mL/min/kg]×hepatic blood flow[mL/min/kg]/(CL_[sequence]_IN VIVO[mL/min/kg]+hepatic blood flow[mL/min/kg])
# Results are expressed as percentage of hepatic blood flow:
# QH[%]=CL[mL/min/kg]/hepatic blood flow[mL/min/kg])
# [1] = test system: ERK phosphorylation in NCI-H358 SOS2 KO cells (KRAS G12C); experiment: Erk phosphorylation assay; format: cell-based, human; settings: EGF stimulated, average of at least two measurements, read-out: pERK IC50
# Procedure, shortened: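 NCI-H358 SOS2 KO cells (KRAS G12C) in DMEM/2% FBS were pretreated 50 min with compound, then stimulated with EGF (approx. 8 ng/mL) for 10-15 min. pERK1/2 (Thr202/Tyr204) measured in lysates by AlphaLISA SureFire; IC50 from variable-slope fit, averaged over at least two measurements.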
# P450 3A4 = P450 3A4 (Homo sapiens (Human), UniProt P08684); experiment: Cytochrome P450 isoenzyme inhibition assay (P450 3A4, midazolam); format: in vitro ADME; settings: human liver microsomes, Midazolam as substrate; read-out: CYP3A4 inhibition IC50
# Chain of P450 3A4 (P08684 whole entry): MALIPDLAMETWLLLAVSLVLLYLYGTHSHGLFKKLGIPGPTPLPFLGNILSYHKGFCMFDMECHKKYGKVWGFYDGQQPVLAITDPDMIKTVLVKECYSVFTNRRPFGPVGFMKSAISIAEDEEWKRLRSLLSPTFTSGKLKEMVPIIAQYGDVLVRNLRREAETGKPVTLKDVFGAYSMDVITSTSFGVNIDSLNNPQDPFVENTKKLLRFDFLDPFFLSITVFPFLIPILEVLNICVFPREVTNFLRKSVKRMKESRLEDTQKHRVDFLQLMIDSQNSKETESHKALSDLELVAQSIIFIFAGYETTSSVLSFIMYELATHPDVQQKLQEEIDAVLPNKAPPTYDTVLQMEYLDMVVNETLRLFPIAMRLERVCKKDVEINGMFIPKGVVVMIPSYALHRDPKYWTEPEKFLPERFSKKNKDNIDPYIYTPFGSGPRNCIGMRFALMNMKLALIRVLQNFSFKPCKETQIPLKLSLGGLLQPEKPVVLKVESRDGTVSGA
# Procedure, shortened: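 Midazolam (5 μM) hydroxylation by human liver microsomes (0.1 mg/ml) in 0.1 M TRIS with 5 mM MgCl2, started with 1 mM NADPH. Five compound concentrations in duplicate, e.g. top 50 μM with 1:4 dilutions. Metabolite quantified by LC-MS/MS against internal standard; IC50 from inhibition relative to no-compound control.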
# SOS1 and KRAS G12C = SOS1 and KRAS G12C (Homo sapiens (Human), UniProt Q07889); experiment: KRAS::SOS1 AlphaScreen binding assay (KRAS G12C); settings: average of at least two measurements
# Chain of SOS1 and KRAS G12C (Q07889 564-1049, stated change not applied): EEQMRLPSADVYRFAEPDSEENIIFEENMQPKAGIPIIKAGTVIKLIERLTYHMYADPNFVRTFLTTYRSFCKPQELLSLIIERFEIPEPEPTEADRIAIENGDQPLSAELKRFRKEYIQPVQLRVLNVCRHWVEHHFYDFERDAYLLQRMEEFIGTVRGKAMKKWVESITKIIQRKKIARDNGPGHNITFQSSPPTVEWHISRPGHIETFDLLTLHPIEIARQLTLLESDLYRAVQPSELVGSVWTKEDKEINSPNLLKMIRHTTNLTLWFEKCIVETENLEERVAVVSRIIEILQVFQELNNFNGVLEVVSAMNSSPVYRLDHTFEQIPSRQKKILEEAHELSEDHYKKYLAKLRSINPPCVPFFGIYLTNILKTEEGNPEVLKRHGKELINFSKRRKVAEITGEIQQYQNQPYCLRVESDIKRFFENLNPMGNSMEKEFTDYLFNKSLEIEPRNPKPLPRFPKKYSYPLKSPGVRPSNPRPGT
# SOS1 and KRAS G12D = SOS1 and KRAS G12D (Homo sapiens (Human), UniProt Q07889); experiment: KRAS::SOS1 AlphaScreen binding assay (KRAS G12D); settings: average of at least two measurements
# Chain of SOS1 and KRAS G12D (Q07889 564-1049, stated change not applied): as above
# CYP3A4 = CYP3A4 (Homo sapiens (Human), UniProt P08684); experiment: Mechanism-based inhibition of CYP3A4 assay (MBI 3A4); format: in vitro ADME; settings: human liver microsomes, midazolam substrate, hydroxy-midazolam formation after 30 min preincubation relative to 0 min; for inhibition at 30 min: human, probe midazolam 15 μM (hydroxy-midazolam formation), read-out: MBI inhibition % ctrl. [%] with MDZ
# Chain of CYP3A4 (P08684 whole entry): as the sequence (P08684 whole entry) above
# Procedure, shortened: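 Human liver microsomes (0.2 mg/mL) were preincubated with compound at 0, 5 or 25 μM plus 1 mM NADPH for 0, 10 or 30 min, then diluted 1:10 and incubated 10 min with 15 μM midazolam. Hydroxy-midazolam was measured by LC/MS-MS; readout is formation after 30 min relative to 0 min preincubation (%).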
# [2] = Homo sapiens, NCI-H358, NCI-H358 SOS2 KO cells
Structure (SMILES),Hepatic clearance - QH[%] in human hepatocytes (human hepatocytes),"IC50 [1, 2]",IC50 (P450 3A4),IC50 (SOS1 and KRAS G12C),IC50 (SOS1 and KRAS G12D),inhibition at 30 min (CYP3A4),IC50 ([1]; NCI-H358 SOS2 KO cells),MBI inhibition % ctrl. [%] with MDZ (CYP3A4)
C[C@@H](NC(=O)c1cc(N2CCC(N3C[C@@H](O)C[C@@H]3C)CC2)c2ncnn2c1)c1cccc(C(F)F)c1F [Example E12],12%,110 nM,> 50000 nM,30 nM,24 nM,79%,,
C[C@@H](NC(=O)c1cc(N2CCC(N3CCC[C@H](O)C3)CC2)c2ncnn2c1)c1cccc(C(F)F)c1F [Example E18],17%,54 nM,> 50000 nM,49 nM,37 nM,99%,,
C[C@@H](NC(=O)c1cc(N2CCC3(CCCCN3)CC2)c2ncnn2c1)c1cccc(C(F)F)c1F [Example E19],19%,222 nM,> 50000 nM,32 nM,27 nM,102%,,
C[C@@H](NC(=O)c1cc(N2CCC3(CCCN3C)CC2)c2ncnn2c1)c1cccc(C(F)F)c1F [Example E20],19%,146 nM,> 50000 nM,44 nM,33 nM,94%,,
C[C@@H](NC(=O)c1cc(N2CCC(N3CCC[C@@H](O)C3)CC2)c2ncnn2c1)c1cccc(C(F)F)c1F [Example E22],19%,187 nM,> 50000 nM,48 nM,49 nM,100%,,
C[C@@H]1C[C@H](O)CN1C1CCN(c2cc(C(=O)N[C@H](C)c3cccc(C(F)(F)F)c3F)cn3ncnc23)CC1 [Example E24],22%,,> 50000 nM,56 nM,46 nM,,325 nM,99%
C[C@@H]1[C@H](O)CN1C1CCN(c2cc(C(=O)N[C@H](C)c3cccc(C(F)(F)F)c3F)cn3ncnc23)CC1 [Example E25],17%,282 nM,> 50000 nM,63 nM,53 nM,91%,,
C[C@@H](NC(=O)c1cc(N2CCC(N3CC[C@H](CO)C3)CC2)c2ncnn2c1)c1cccc(C(F)(F)F)c1F [Example E26],8%,147 nM,> 50000 nM,86 nM,78 nM,92%,,
C[C@@H](NC(=O)c1cc(N2CCC(N3CC[C@@H](CO)C3)CC2)c2ncnn2c1)c1cccc(C(F)(F)F)c1F [Example E27],9%,73 nM,> 50000 nM,77 nM,73 nM,90%,,
C[C@@H](NC(=O)c1cc(N2CCC(N3C[C@H](O)C4(CC4)C3)CC2)c2ncnn2c1)c1cccc(C(F)(F)F)c1F [Example E28],23%,186 nM,> 50000 nM,70 nM,70 nM,90%,,
C[C@@H](NC(=O)c1cc(N2CCC(N3C[C@@H](O)C4(CC4)C3)CC2)c2ncnn2c1)c1cccc(C(F)(F)F)c1F [Example E30],18%,296 nM,> 50000 nM,59 nM,51 nM,103%,,
C[C@@H](NC(=O)c1cc(N2CCC(N3CCC[C@H]3CO)CC2)c2ncnn2c1)c1cccc(C(F)(F)F)c1F [Example E31],13%,153 nM,> 50000 nM,33 nM,28 nM,91%,,
C[C@@H](NC(=O)c1cc(N2CCC(N3C[C@@H](O)[C@@H]3C)CC2)c2ncnn2c1)c1cccc(C(F)(F)F)c1F [Example E32],23%,270 nM,> 50000 nM,44 nM,43 nM,92%,,
C[C@@H](NC(=O)c1cc(N2CCC3(CCCN3)CC2)c2ncnn2c1)c1cccc(C(F)(F)F)c1F [Example E34],10%,62 nM,> 50000 nM,42 nM,34 nM,106%,,
